Laboratory results from patent US8470889B2 (TRT Pharma Inc., priority 2008, dated 2013).
Read-outs that look alike come from different tables or passages of the source.

Key:
LNCaP cells [1] = test system: LNCaP cells;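 also: MTT formazan absorbance at 600 nm read after 72 h of compound exposure, IC50 fitted by nonlinear regression of dose-response curves, samples run in triplicate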
Description: (§1) MDA PCa 2b was seeded at the same density in medium BRFF-HPC1 (Athena Enzyme Systems, Baltimore, Md., USA) supplemented with 20% FBS. After overnight incubation, the medium was changed to a fresh medium containing different concentrations of test compounds diluted from stock DMSO solution. The final concentration of DMSO is 0.5%. After 72 h of incubation with test compounds, 20 μL of 3-(4,5-dimethyl thiazol-2-yl)-2,5-diphenyltetrazolium bromide (MTT) solution (5 mg/mL in PBS) were added to each well and incubated further for 2 h. Next, the supernatant was aspirated and the MTT formazan formed by metabolically viable cells was dissolved in 100 μL of isopropanol. The plates were mixed for 30 min, and the absorbance was measured at 600 nm on a plate reader (FLUOstar OPTIMA, BMG LabTech). All samples were in triplicate. The IC50 values were determined from dose-response curves by nonlinear regression using PRISM v5.00 (GraphPad Software Inc, La Jolla, Calif., USA).
(§2) The in vitro cytotoxicity of 1-20 were evaluated by MTT assays in a panel of prostate cancer cell lines, including LNCaP, MDA PCa 2b, 22Rv1, C4-2B and PC-3.

PC-3 cells [2] = test system: PC-3 cells
Description: as §1, §2

22Rv1 cells [3] = test system: 22Rv1 cells
Description: as §1, §2

C4-2B cells [4] = test system: C4-2B cells;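 also: cells treated with a dilution series for 72 h, then MTT added and absorbance read at 600 nm, IC50 fitted from dose-response curves by nonlinear regression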
LNCaP cells [5] = experiment: MTT cell growth inhibition, LNCaP;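 also: MTT formazan absorbance at 600 nm read after 72 h of compound exposure, IC50 fitted by nonlinear regression of dose-response curves, samples run in triplicate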
Description: as §1, §2

PC-3 cells [6] = experiment: MTT cell growth inhibition, PC-3
Description: as §1, §2

C4-2B cells [7] = experiment: MTT cell growth inhibition, C4-2B;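 also: cells treated with a dilution series for 72 h, then MTT added and absorbance read at 600 nm, IC50 fitted from dose-response curves by nonlinear regression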
22Rv1 cells [8] = experiment: MTT cell growth inhibition, 22Rv1; conditions: MTT
Description: as §1, §2

[9] = read-out: Cellular IC50 (μM) LNCaP, Table 8
[10] = read-out: Cellular IC50 (μM) PC3, Table 8
[11] = read-out: Cellular IC50 (μM) C4-2B, Table 8
[12] = read-out: Cellular IC50 (μM) 22Rv1, Table 8
[13] = read-out: Cellular IC50 (μM) LNCaP, Table 9
[14] = read-out: Cellular IC50 (μM) PC-3, Table 9
[15] = read-out: Cellular IC50 (μM) C4-2B, Table 9
[16] = read-out: Cellular IC50 (μM) 22Rv1, Table 9

Description for MDA PCa 2b cells: as §1, §2

Compound	IC50 (LNCaP cells [1]) [µM]	IC50 (PC-3 cells [2]) [µM]	IC50 (22Rv1 cells [3]) [µM]	also measured
CC1=CCCC(C)(C)C1/C=C/C(=O)/C=C/c1ccccc1C(F)(F)F (racemic) [Compound B16]	22.6	19	18.4	IC50 (C4-2B cells [4]): 11.7 µM
CC1=C(/C=C/C(=O)/C=C/c2cccc(F)c2)C(C)(C)CCC1O (racemic) [Compound B30]	4.4	16	5.6	
CC1=C(/C=C/C(=O)/C=C/c2ccc([N+](=O)[O-])cc2)C(C)(C)CCC1O (racemic) [Compound B41]	4.2	15	4.1	
CC1=C(/C=C/C(=O)/C=C/c2cccc([N+](=O)[O-])c2)C(C)(C)CCC1 [Compound B11]	2.7	10		
CC1=C(/C=C/C(=O)/C=C/c2cccc(F)c2)C(C)(C)CCC1 [Compound B9]		18.7		IC50 (LNCaP cells [5]; read-out: IC50 in LNCaP cells): 12.9 µM
COc1ccc(/C=C/C(=O)/C=C/C2=C(C)CCCC2(C)C)cc1O [Compound B2]	9.9	37.4		
CC1=C(/C=C/C(=O)/C=C/c2ccc(O)c([N+](=O)[O-])c2)C(C)(C)CCC1 [Compound B12]	26.8	> 50		
CC1=C(/C=C/C(=O)/C=C/c2c(F)cccc2C(F)(F)F)C(C)(C)CCC1O (racemic) [Compound B37]	4.9	8.8	8.9	
CC1=C(/C=C/C(=O)/C=C/c2ccc(C(F)(F)F)cc2)C(C)(C)CCC1 [Compound B6]	9.1	12		
CCOc1ccc(/C=C/C(=O)/C=C/C2=C(C)CCCC2(C)C)cc1OCC [Compound B4]	8.2	> 50		
CC1=C(/C=C/C(=O)/C=C/c2ccccc2F)C(C)(C)CCC1 [Compound B8]	10.7	22.1		
COc1cc(/C=C/C(=O)/C=C/C2=C(C)CCCC2(C)C)ccc1O [Compound B1]	9.5	21.3		
CC1=C(/C=C/C(=O)/C=C/c2ccccc2F)C(C)(C)CCC1O (racemic) [Compound B29]	2.9	10.4	3.3	
CC1=C(/C=C/C(=O)/C=C/c2ccc(C(F)(F)F)cc2)C(C)(C)CCC1O (racemic) [Compound B26]	3	10.2	3.2	IC50 (MDA PCa 2b cells): 9.3 µM
CC1=C(/C=C/C(=O)/C=C/c2ccc(F)cc2)C(C)(C)CCC1 [Compound B10]	7.3	25.8		
COc1cc(OC)c(OC)cc1/C=C/C(=O)/C=C/C1=C(C)C(O)CCC1(C)C (stereo not shown) [Compound B73]				IC50 (LNCaP cells [5]; [9]): 3.7 µM; IC50 (PC-3 cells [6]; [10]): 9.5 µM; IC50 (C4-2B cells [7]; [11]): 3.2 µM; IC50 (22Rv1 cells [8]; [12]): 5.4 µM
CC1=C(/C=C/C(=O)/C=C/c2ccc(N(CCO)CCO)cc2)C(C)(C)CCC1O (stereo not shown) [Compound B62]				IC50 (LNCaP cells [5]; [9]): 1.4 µM; IC50 (PC-3 cells [6]; [10]): 6.9 µM; IC50 (C4-2B cells [7]; [11]): 1.7 µM; IC50 (22Rv1 cells [8]; [12]): 4.3 µM

Compound	IC50 (LNCaP cells [1]) [µM]	IC50 (PC-3 cells [2]) [µM]	IC50 (22Rv1 cells [3]) [µM]	also measured
COc1cc(/C=C/C(O)=C/C(=O)/C=C/C2=C(C)CCCC2(C)C)ccc1O [Compound 1]				IC50 (LNCaP cells [5]; read-out: IC50 (μM) LNCaP, Table 1, 72 h): 20.6 µM; IC50 (PC-3 cells [6]; read-out: IC50 (μM) PC-3, Table 1, 72 h, maximum tested concentration 50 μM): 15.8 µM; IC50 (C4-2B cells [7]; read-out: IC50 (μM) C4-2B, Table 1, 72 h): 44.3 µM; IC50 (22Rv1 cells [8]; read-out: IC50 (μM) 22Rv1, Table 1, 72 h): 10.6 µM
Cn1cc(/C=C/C(=O)/C=C/C2=CC(O)CCC2(C)C)c2ccccc21 (stereo not shown) [Compound B88]				IC50 (LNCaP cells [5]; [13]): 9.4 µM; IC50 (PC-3 cells [6]; [14]): 54.9 µM; IC50 (C4-2B cells [7]; [15]): 11.8 µM; IC50 (22Rv1 cells [8]; [16]): 21 µM
CCOc1ccc(/C=C/C(=O)/C=C/C2=C(C)C(O)CCC2(C)C)cc1OCC (stereo not shown) [Compound B71]				IC50 (LNCaP cells [5]; [9]): 5.5 µM; IC50 (PC-3 cells [6]; [10]): 36.1 µM; IC50 (C4-2B cells [7]; [11]): 10.5 µM; IC50 (22Rv1 cells [8]; [12]): 8.6 µM
CC1(C)CCC(O)C=C1/C=C/C(=O)/C=C/c1c[nH]c2ccc(Cl)cc12 (stereo not shown) [Compound B84]				IC50 (LNCaP cells [5]; [13]): 17.8 µM; IC50 (PC-3 cells [6]; [14]): 24.5 µM; IC50 (C4-2B cells [7]; [15]): 18.2 µM; IC50 (22Rv1 cells [8]; [16]): 14.3 µM
CC1=C(/C=C/C(=O)/C=C/c2cccc(C)c2)C(C)(C)CCC1 [Compound B14]	17.8	35		
CC1(C)CCC(O)C=C1/C=C/C(=O)/C=C/c1ccc2ccccc2n1 (stereo not shown) [Compound B94]				IC50 (LNCaP cells [5]; [13]): 2 µM; IC50 (PC-3 cells [6]; [14]): 5.5 µM; IC50 (C4-2B cells [7]; [15]): 1.5 µM; IC50 (22Rv1 cells [8]; [16]): 2.7 µM
COc1ccc(/C=C/C(=O)/C=C/C2=C(C)C(O)CCC2(C)C)cc1 (stereo not shown) [Compound B53]				IC50 (LNCaP cells [5]; [9]): 13.3 µM; Cellular IC50 (μM) PC3 (PC-3 cells [6]; Table 8): Int; IC50 (C4-2B cells [7]; [11]): 10.3 µM; IC50 (22Rv1 cells [8]; [12]): 20.3 µM
COc1ccc(/C=C/C(=O)/C=C/C2=C(C)CCCC2(C)C)cc1OC [Compound B3]	9.5	42		
COc1cc(C=CC(=O)C(=Cc2cc(OC)c(OC)c(OC)c2)C(=O)C=CC2=C(C)CCCC2(C)C)cc(OC)c1OC [Compound 16]				IC50 (LNCaP cells [5]; read-out: Cellular IC50 (μM) LNCaP, Table 2, 72 h): 3.4 µM; IC50 (PC-3 cells [6]; read-out: Cellular IC50 (μM) PC-3, Table 2, 72 h, max tested 50 μM (β-ionone 150 μM)): 5.9 µM; IC50 (C4-2B cells [7]; read-out: Cellular IC50 (μM) C4-2B, Table 2, 72 h): 2.2 µM; IC50 (22Rv1 cells [8]; read-out: Cellular IC50 (μM) 22Rv1, Table 2, 72 h): 1.5 µM
CC1(C)CCC(O)C=C1/C=C/C(=O)/C=C/c1cccc2cc[nH]c12 (stereo not shown) [Compound B90]				IC50 (LNCaP cells [5]; [13]): 1.4 µM; IC50 (PC-3 cells [6]; [14]): 2.1 µM; IC50 (C4-2B cells [7]; [15]): 1.7 µM; IC50 (22Rv1 cells [8]; [16]): 2.1 µM
CC1(C)CCC(O)C=C1/C=C/C(=O)/C=C/c1cc2ccccc2s1 (stereo not shown) [Compound B93]				IC50 (LNCaP cells [5]; [13]): 12.9 µM; IC50 (PC-3 cells [6]; [14]): 23.8 µM; IC50 (C4-2B cells [7]; [15]): 9.9 µM; IC50 (22Rv1 cells [8]; [16]): 17.6 µM
COc1ccccc1/C=C/C(=O)/C=C/C1=C(C)C(O)CCC1(C)C (stereo not shown) [Compound B65]				IC50 (LNCaP cells [5]; [9]): 1.9 µM; IC50 (PC-3 cells [6]; [10]): 7.1 µM; IC50 (C4-2B cells [7]; [11]): 2.6 µM; IC50 (22Rv1 cells [8]; [12]): 4.6 µM
CC1=C(/C=C/C(=O)/C=C/c2ccc(N3CCCCC3)cc2)C(C)(C)CCC1O (stereo not shown) [Compound B59]				IC50 (LNCaP cells [5]; [9]): 17.8 µM; IC50 (PC-3 cells [6]; [10]): 22.5 µM; IC50 (C4-2B cells [7]; [11]): 19.7 µM; IC50 (22Rv1 cells [8]; [12]): 31.2 µM
CC1=C(/C=C/C(=O)/C=C/c2ccc(-c3ccccc3)cc2)C(C)(C)CCC1 [Compound B15]	14.8	47.8		
Cc1cccc2c(/C=C/C(=O)/C=C/C3=CC(O)CCC3(C)C)c[nH]c12 (stereo not shown) [Compound B86]				IC50 (LNCaP cells [5]; [13]): 2.6 µM; IC50 (PC-3 cells [6]; [14]): 6.4 µM; IC50 (C4-2B cells [7]; [15]): 3.6 µM; IC50 (22Rv1 cells [8]; [16]): 5.3 µM
CC1=C(/C=C/C(=O)/C=C/c2cc([N+](=O)[O-])ccc2Cl)C(C)(C)CCC1 [Compound B13]	4.2	18.9		

More lines, main results first:

IC50 (LNCaP cells [1]) [µM]	IC50 (PC-3 cells [2]) [µM]	IC50 (22Rv1 cells [3]) [µM]	Compound	also measured
1.1	2.1		CC1=C(/C=C/C(=O)/C=C/c2cccc(C(F)(F)F)c2F)C(C)(C)CCC1O (racemic) [Compound B34]	
2.9	3.7	2.3	CC1=C(/C=C/C(=O)/C=C/c2ccccc2C(F)(F)F)C(C)(C)CCC1O (racemic) [Compound B24]	IC50 (MDA PCa 2b cells): 2.9 µM
4.1	6.2	4.4	CC1=C(/C=C/C(=O)/C=C/c2cccc(C)c2)C(C)(C)CCC1O (racemic) [Compound B38]	IC50 (MDA PCa 2b cells): 19 µM
8.7	7.2		CC1=C(/C=C/C(=O)/C=C/c2cc(C(F)(F)F)cc(C(F)(F)F)c2)C(C)(C)CCC1 [Compound B7]	
12.2	5.9	15.2	CC1=CCCC(C)(C)C1/C=C/C(=O)/C=C/c1cccc(C)c1 (racemic) [Compound B22]	IC50 (C4-2B cells [4]): 6.2 µM
3.2	1.9		CC1=C(/C=C/C(=O)/C=C/c2cc(C(F)(F)F)ccc2C(F)(F)F)C(C)(C)CCC1O (racemic) [Compound B27]	IC50 (MDA PCa 2b cells): 4 µM
2.6	4.6	3.8	CC1=C(/C=C/C(=O)/C=C/c2ccc(C(F)(F)F)cc2F)C(C)(C)CCC1O (racemic) [Compound B35]	
4.9	6.5		COc1cccc(/C=C/C(=O)/C=C/C2=C(C)C(O)CCC2(C)C)c1 (racemic) [Compound B42]	
2.1	7	2.2	CC1=C(/C=C/C(=O)/C=C/c2cc(C(F)(F)F)cc(C(F)(F)F)c2)C(C)(C)CCC1O (racemic) [Compound B28]	IC50 (MDA PCa 2b cells): 3.5 µM
1.7	3.6	2	CC1=C(/C=C/C(=O)/C=C/c2cc(C(F)(F)F)ccc2F)C(C)(C)CCC1O (racemic) [Compound B36]	
1.8	4.7		CCOC(OCC)c1cccc(/C=C/C(=O)/C=C/C2=C(C)C(O)CCC2(C)C)c1 (stereo not shown) [Compound B43]	
1.8	7.2	2.2	CC1=C(/C=C/C(=O)/C=C/c2cccc(C#N)c2)C(C)(C)CCC1O (racemic) [Compound B39]	
3.9	6.2	7.5	CC1=C(/C=C/C(=O)/C=C/c2ccc(F)cc2)C(C)(C)CCC1O (racemic) [Compound B31]	IC50 (C4-2B cells [4]): 4 µM
1.1	3	2.4	CC1=C(/C=C/C(=O)/C=C/c2cc(F)cc(C(F)(F)F)c2)C(C)(C)CCC1O (racemic) [Compound B33]	
	7.7		CC1=C(/C=C/C(=O)/C=C/c2cccc(C(F)(F)F)c2)C(C)(C)CCC1 [Compound B5]	IC50 (LNCaP cells [5]; read-out: IC50 in LNCaP cells): 2.8 µM
2	5.8	1.9	CC1=C(/C=C/C(=O)/C=C/c2cccc([N+](=O)[O-])c2)C(C)(C)CCC1O (racemic) [Compound B40]	IC50 (MDA PCa 2b cells): 6 µM
